Tests used:
PFF-injected old mice = assay: Pole test in PFF-injected mice; format: in vivo, mouse; details: 10 and/or 50 mg/kg oral, vs PFF only
Protocol: (§1) A mouse model of Parkinson's disease is C57BL/6 male or female mice (50% each) injected with 5 μg of mouse PFF at 12 months old, followed by a treatment below for 6-7 weeks: • 1) without PFF injection, followed by vehicle (control, n=7); • 2) PFF injection, followed by vehicle (PFF only: control, n=8); • 3) PFF injection, followed by daily 10 mg/kg Momordin gavage (n=7-8); • 4) PFF injection, followed by daily 50 mg/kg Momordin gavage (n=7-8).
Pole Test. All the mice were placed on a vertical pole with their face up and habituated to face down the pole to climb down for 5 consecutive days. The time taken for a mouse to turn and position for the descend was noted, and the latency for climb-down was counted. A mouse falling off or slipping down the pole without turning was considered a failure. Videos of the pole test were taken and analyzed by a blinded rater to record the total climb-down or turn time. Minimal 5 trials were performed for each animal, and the average of 5 trials was considered as the final score for data presentation.

[1] = system: phosphorylated α-synuclein; assay: Western blot of phosphorylated α-synuclein in α-synuclein IP tissue samples; format: in vivo, mouse; details: PFF-injected mice, vs PFF only
Protocol: A) In Western blots, Momordin reversed the toxicity from PFF injection in reducing phospho-α-synuclein and SENP-1 on α-synuclein in the MB and STR. […] A pathological marker, phosphorylated α-synuclein was increased by PFF injection, which was reversed by Momordin treatment in the MB (F) and the STR (G).
as §1

SENP-1 = biological target: T1, SENP-1 (Mus musculus, UniProt P59110); assay: Western blot of SENP-1 in brain tissue extracts of PFF-injected mice; format: in vivo; details: vs PFF only
T1 construct: from tissue; host or cells: mouse brain: midbrain (MB) and striatum (STR) extracts
T1 sequence (P59110 1-640): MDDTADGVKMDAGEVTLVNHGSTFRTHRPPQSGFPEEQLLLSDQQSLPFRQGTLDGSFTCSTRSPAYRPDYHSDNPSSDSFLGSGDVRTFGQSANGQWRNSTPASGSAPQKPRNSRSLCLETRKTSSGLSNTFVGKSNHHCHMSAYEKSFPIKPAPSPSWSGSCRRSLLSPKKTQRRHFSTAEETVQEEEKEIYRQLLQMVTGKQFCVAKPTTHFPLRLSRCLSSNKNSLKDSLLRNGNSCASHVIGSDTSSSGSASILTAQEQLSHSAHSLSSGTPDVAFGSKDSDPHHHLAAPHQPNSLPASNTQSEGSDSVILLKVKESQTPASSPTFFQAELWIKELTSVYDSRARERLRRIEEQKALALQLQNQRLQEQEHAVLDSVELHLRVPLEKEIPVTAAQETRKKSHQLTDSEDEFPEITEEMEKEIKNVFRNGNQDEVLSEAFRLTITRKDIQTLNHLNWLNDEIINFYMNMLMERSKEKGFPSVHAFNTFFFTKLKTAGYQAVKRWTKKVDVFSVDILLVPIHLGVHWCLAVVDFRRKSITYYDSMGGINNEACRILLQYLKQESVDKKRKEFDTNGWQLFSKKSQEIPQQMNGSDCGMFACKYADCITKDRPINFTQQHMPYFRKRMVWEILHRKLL
Protocol: as §1
Immunoblot Analyses. A total of three protein extractions were performed. In the first extraction, a gentle RIPA buffer containing the low concentration of detergent (25 mM Tris-HCL, 150 mM NaCl, 1% NP-40, 1% sodium deoxycholate and 0.1% SDS) was added with phosphatase inhibitors (100 μL for 10 mL) and 5 mM EDTA. The mixture was sonicated and centrifuged at 14,000 rpm for 10 min. The supernatant was collected for measuring the levels of phosphorylated α-syn, SENP-1 or SUMO-1 conjugated proteins for different groups. […] The primary antibodies pertaining to each protein analyzed were diluted at 1:1000 (p-Ser-129-α-synuclein, Cell signaling; SENP-1, SAB4501345, EMD) and incubated at 4° C. overnight. […] ImageJ was used to analyze specific bands on each blot and measured against the loading control (β-actin) for normalizing each band intensity.

## CC1(C)CC[C@]2(C(=O)O)CC[C@]3(C)C(=CC[C@@H]4[C@@]5(C)CC[C@H](O[C@@H]6O[C@H](C(=O)O)[C@@H](O)[C@H](O[C@@H]7OC[C@@H](O)[C@H](O)[C@H]7O)[C@H]6O)C(C)(C)[C@@H]5CC[C@]43C)[C@@H]2C1 [Momordin lc]
PFF-injected old mice
  climb-down time in pole tests: reduces
  turn time in pole tests: reduces
[1]; midbrain
  phosphorylated α-synuclein in the MB (α-synuclein IP): reversed
[1]; striatum
  phosphorylated α-synuclein in the STR (α-synuclein IP): reversed
SENP-1; midbrain
  PFF-induced SENP-1 in the MB (Western blot, tissue extracts): reduced
SENP-1; striatum
  PFF-induced SENP-1 in the STR (Western blot, tissue extracts): reduced

— patent publication US20260021167A1, “COMPOSITIONS AND METHODS FOR TREATING OR PREVENTING NEURODEGENERATIVE DISEASES” (Delaware State University, priority 2022, published 2026)
